Structures can show the parent of a compound that is named as a salt. Where two headings read alike, the source gives them in different places.
Assays:
[1] = tested on: acetylated α-tubulin (AcTub) levels in QBI293 cells; assay: QBI293 cell assay of MT stabilization: acetylated α-tubulin ELISA; type: cell-based
Description: (§1) All test compounds were initially screened in the same cell-based (QBI293) assay of MT stabilization used in our previous SAR studies[11],[12] so as to allow direct comparison with literature data. Changes in levels of acetylated α-tubulin (AcTub) and total α-tubulin (α-Tub), relative to vehicle-treated negative control cells, were determined after 4 h of incubation with test compounds at 1 and 10 μM. To account for possible day-to-day differences in the responsiveness of cells to MT-stabilizing treatment, compound-dependent changes in AcTub levels relative to DMSO-treated cells were also normalized to the corresponding changes caused by 100 nM of 5 that was used as a positive control. In addition, docking studies, binding free energy calculations, and in selected cases, molecular dynamic simulations were conducted using an X-ray structure of the vinca and seventh sites (PDB: 5NJH,[10]7CLD[13]). […] For selected compounds, additional studies included testing in the QBI293 cell AcTub assay at additional compound concentrations, and/or evaluation of test compounds for their ability to prevent MT collapse in primary neuron cultures treated with the phosphatase inhibitor, okadaic […] (OA). Finally, cytotoxicity studies in QBI293 and HeLa cells were also conducted for representative examples (Supporting Information).
(§2) Compound-induced changes in acetylated-tubulin and α-tubulin in QBI293 cells or primary mouse or rat neurons were as previously described.[11],[12] […] The plated cells were incubated overnight, after which the medium was aspirated and fresh medium containing vehicle (0.25–0.3% DMSO) or test compound was added. Test compounds were prepared as 4–20 mM stock solutions in 100% DMSO, and these were diluted in culture medium prior to addition to the QBI293 cells. After 4 h incubation, whole-cell extracts were prepared from the QBI293 cells as described[11] and the supernatant fraction from each sample was assessed for protein content by bicinchoninic acid (BCA) assay. The amount of acetyl-tubulin (AcTub) and α-tubulin (αTub) within the cell extract samples was quantified using specific enzyme-linked immunosorbent assays (ELISA), as previously described.[11] Acetyl-tubulin levels were determined in a similar manner in rat or mouse cortical neuron cultures in which embryonic dissociated cortical neurons were plated at 3 × 10^5 cells/well in poly-D-lysine-coated 12-well plates, essentially as previously described.[11] […] Culture homogenates were prepared for the determination of AcTub levels by ELISA as previously described.[11]

[2] = tested on: total α-tubulin (α-Tub) levels in QBI293 cells; assay: QBI293 cell assay: total α-tubulin ELISA; type: cell-based
Description: as §1, §2

[3] = 4 h, 1 uM compound, read-out: AcTub (1uM)
[4] = 4 h, 10 uM compound, read-out: AcTub (10 uM)
[5] = 4 h incubation, 1 μM, read-out: AcTub 1 μM, fold-change compared to vehicle (DMSO)-treated cells
[6] = 4 h incubation, 10 μM, read-out: AcTub 10 μM, fold-change compared to vehicle (DMSO)-treated cells
[7] = 4 h, 1 uM compound, read-out: AlfaTub (1uM)
[8] = 4 h, 10 uM compound, read-out: AlfaTub (10 uM)
[9] = 4 h incubation, 1 μM, read-out: α-Tub 1 μM, fold-change compared to vehicle (DMSO)-treated cells
[10] = 4 h incubation, 10 μM, read-out: α-Tub 10 μM, fold-change compared to vehicle (DMSO)-treated cells

Row | Structure (SMILES) | AcTub (1 uM - normalized) ([1]; 1 uM compound) | AcTub (10 uM - normalized) ([1]; 10 uM compound) | fold induction at 1 µM [1, 3] | fold induction at 10 µM [1, 4] | AcTub 1 μM, fold-change compared to positive control compound 5 (100 nM) (in parentheses) ([1]; 4 h incubation, 1 μM) | fold induction at 1 µM [1, 5] | AcTub 10 μM, fold-change compared to positive control compound 5 (100 nM) (in parentheses) ([1]; 4 h incubation, 10 μM) | fold induction at 10 µM [1, 6] | fold induction at 1 µM [2, 7] | fold induction at 10 µM [2, 8] | fold induction at 1 µM [2, 9] | fold induction at 10 µM [2, 10] | total α-Tub at higher (30 μM) concentration ([2]; 4 h, 30 μM)
1 | CN(C)CCCOc1cc(F)c(-c2c(Cl)nc3ncnn3c2NCC2CCC2)c(F)c1 [Compound 30, 5-Chloro-N-(cyclobutylmethyl)-6-(4-(3-(dimethylamino)propoxy)-2,6-difluorophenyl)-[1,2,4]triazolo[1,5-a]pyrimidin-7-amine] | 0.61 | 0.15 | 1.49 | 0.37 | 0.61 fold-change | 1.49 ± 0.18 | 0.15 fold-change | 0.37 ± 0.12 | 0.8 | 0.93 | 0.8 ± 0.03 | 0.93 ± 0.05 | –
2 | C#Cc1cc(F)c(-c2c(Cl)nc3ncnn3c2N[C@H](C)C(C)C)c(F)c1 [Compound 34, (R)-5-Chloro-6-(4-ethynyl-2,6-difluorophenyl)-N-(3-methylbutan-2-yl)-[1,2,4]triazolo[1,5-a]pyrimidin-7-amine] | 0.39 | 0.88 | 3.56 | 8.02 | 0.39 fold-change | 3.56 ± 0.27 | 0.88 fold-change | 8.02 ± 0.25 | 0.98 | 1.03 | 0.98 ± 0.002 | 1.03 ± 0.008 | –
3 | C[C@H](Nc1c(-c2c(F)cc(C#CCCO)cc2F)c(Cl)nc2ncnn12)C(F)(F)F [Compound 42, (S)-4-(4-(5-Chloro-7-((1,1,1-trifluoropropan-2-yl)amino)-[1,2,4]triazolo[1,5-a]pyrimidin-6-yl)-3,5-difluorophenyl)but-3-yn-1-ol] | 0.23 | 0.92 | 1.62 | 6.4 | 0.23 fold-change | 1.62 ± 0.05 | 0.92 fold-change | 6.4 ± 0.32 | 0.88 | 0.69 | 0.88 ± 0.01 | 0.69 ± 0.02 | –
4 | C[C@H](Nc1c(-c2c(F)cc(C#CCCCO)cc2F)c(Cl)nc2ncnn12)C(F)(F)F [Compound 43, (S)-5-(4-(5-Chloro-7-((1,1,1-trifluoropropan-2-yl)amino)-[1,2,4]triazolo[1,5-a]pyrimidin-6-yl)-3,5-difluorophenyl)pent-4-yn-1-ol] | 2.29 | 1.93 | 17.1 | 14.4 | 2.29 fold-change | 17.1 ± 0.5 | 1.93 fold-change | 14.4 ± 0.6 | 0.93 | 0.87 | 0.93 ± 0.02 | 0.87 ± 0.03 | reduction in total tubulin levels could be detected only at higher concentrations
5 | C[C@H](Nc1c(-c2c(F)cc(C#CCCN(C)C)cc2F)c(Cl)nc2ncnn12)C(F)(F)F [Compound 44, (S)-5-Chloro-6-(4-(4-(dimethylamino)but-1-yn-1-yl)-2,6-difluorophenyl)-N-(1,1,1-trifluoropropan-2-yl)-[1,2,4]triazolo[1,5-a]pyrimidin-7-amine] | 2.01 | 1.17 | 10.9 | 6.33 | 2.01 fold-change | 10.9 ± 0.24 | 1.17 fold-change | 6.33 ± 0.22 | 0.77 | 0.93 | 0.77 ± 0.04 | 0.93 ± 0.03 | –
6 | CC(C)[C@@H](C)Nc1c(-c2c(F)cc(C#CCN(C)C)cc2F)c(Cl)nc2ncnn12 [Compound 47, (R)-5-Chloro-6-(4-(3-(dimethylamino)prop-1-yn-1-yl)-2,6-difluorophenyl)-N-(3-methylbutan-2-yl)-[1,2,4]triazolo[1,5-a]pyrimidin-7-amine] | 0.40 | 1.4 | 2.21 | 7.7 | 0.40 fold-change | 2.21 ± 0.6 | 1.40 fold-change | 7.68 ± 0.85 | 0.98 | 1.03 | 0.98 ± 0.04 | 1.03 ± 0.04 | –
7 | CNCC#Cc1cc(F)c(-c2c(Cl)nc3ncnn3c2N[C@H](C)C(C)C)c(F)c1 [Compound 51, (R)-5-Chloro-6-(2,6-difluoro-4-(3-(methylamino)prop-1-yn-1-yl)phenyl)-N-(3-methylbutan-2-yl)-[1,2,4]triazolo[1,5-a]pyrimidin-7-amine Hydrochloride] | 0.27 | 0.79 | 1.98 | 5.92 | 0.27 fold-change | 1.98 ± 0.09 | 0.79 fold-change | 5.92 ± 0.14 | 0.96 | 0.96 | 0.96 ± 0.01 | 0.96 ± 0.03 | –
8 | CC(C)[C@@H](C)Nc1c(-c2c(F)cc(C#CCCN(C)C)cc2F)c(Cl)nc2ncnn12 [Compound 52, (R)-5-Chloro-6-(4-(4-(dimethylamino)but-1-yn-1-yl)-2,6-difluorophenyl)-N-(3-methylbutan-2-yl)-[1,2,4]triazolo[1,5-a]pyrimidin-7-amine 2,2,2-Trifluoroacetate] | 1.75 | 1.24 | 9.5 | 6.7 | 1.75 fold-change | 9.5 ± 0.22 | 1.24 fold-change | 6.7 ± 0.5 | 1 | 1.15 | 1 ± 0.02 | 1.15 ± 0.02 | –
9 | C[C@@H](Nc1c(-c2c(F)cc(C#CCN(C)C)cc2F)c(Cl)nc2ncnn12)C(C)(C)C [Compound 55, (R)-5-Chloro-6-(4-(3-(dimethylamino)prop-1-yn-1-yl)-2,6-difluorophenyl)-N-(3,3-dimethylbutan-2-yl)-[1,2,4]triazolo[1,5-a]pyrimidin-7-amine] | 0.45 | 1.43 | 1.36 | 4.32 | 0.45 fold-change | 1.36 ± 0.08 | 1.43 fold-change | 4.32 ± 0.28 | 1 | 0.84 | 1 ± 0.05 | 0.87 ± 0.01 | –
10 | C[C@@H](Nc1c(-c2c(F)cc(C#CCCN)cc2F)c(Cl)nc2ncnn12)C(C)(C)C [Compound 57, (R)-6-(4-(4-Aminobut-1-yn-1-yl)-2,6-difluorophenyl)-5-chloro-N-(3,3-dimethylbutan-2-yl)-[1,2,4]triazolo[1,5-a]pyrimidin-7-amine Hydrochloride] | 0.83 | 1.21 | 2.49 | 3.66 | 0.83 fold-change | 2.49 ± 0.17 | 1.21 fold-change | 3.66 ± 0.58 | 0.96 | 0.91 | 0.96 ± 0.026 | 0.91 ± 0.12 | –
